Experimental data as given in patent US20140364422A1, “Aqueous Pharmaceutical Composition With Enhanced Stability” (NOVARTIS AG, priority 2012, published 2014).

Legend:
[1] = Solubility/clarity and freeze-thaw of 1.0% olopatadine in native guar with HPCD (Table 4-1); type: physicochemical; conditions: 0.17% native guar, approximately 5% or more HPCD, physiologic pH of approximately 7
Procedure: (§1) Various concentrations of HPCD were used in the formulations. The formulations were filled in glass scintillation vials and in LDPE Drop-Tainers. The formulations were evaluated for clarity using UV light.

[2] = tested on: late phase allergy symptoms; test: Efficacy of olopatadine aqueous ophthalmic solutions in reducing late phase allergy symptoms; type: in vivo
Text: Olopatadine is a known compound that can be obtained by the methods disclosed in U.S. Pat. No. 5,116,863, the entire contents of which are hereby incorporated by reference in the present specification for all purposes. Olopatadine is an antihistamine (as well as anticholinergic) and mast cell stabilizer. Olopatadine is a selective histamine H1 antagonist. When included, the composition of the present invention contains at least 0.1%, more typically at least 0.33% or 0.55%, even more typically at least 0.65% or 0.67%, still more typically at least 0.7%, but typically no greater than 1.5% more typically no greater than 1.0%, still more typically no greater than 0.8%, possibly no greater than 0.75% and even possibly no greater than 0.72% or 0.6% of olopatadine where concentrations of olopatadine typically represent concentrations of olopatadine in free base form if the olopatadine is added to the composition as a salt. […] Advantageously, for the composition of the present invention, lower concentrations (e.g., at least 0.50 w/v %, at least 0.55 w/v %, or at least 0.60 w/v %) may show significant improvements and even possibly statistically significant improvements in reducing late phase allergy symptoms.

[3] = Solubility/clarity and freeze-thaw of 0.5% and 1.0% olopatadine in native guar with HPCD (Table 5-1); type: physicochemical; conditions: physiologic pH of 7; for Olopatadine solubility: 0.17% native guar
Procedure: as §1
Formulation Compositions Containing 0.5% and 1.0% Olopatadine in 0.17% Native Guar and 1% to 6% Hydroxypropyl-Beta-Cyclodextrin (HPCD).

CN(C)CC/C=C1/c2ccccc2COc2ccc(CC(=O)O)cc21 [Olopatadine, (Z)-11-(3-dimethylaminopropylidene)-6,11-dihydro-dibenz-[b,e]oxepin-2-acetic acid]
Olopatadine concentration solubilized [1]: 1%
olopatadine concentration at which efficacy in reducing late phase allergy symptoms begins to show improvement [2]: greater than 0.5 w/v %
olopatadine concentration at which statistically significant improvements in reducing late phase allergy symptoms begin ([2]; about 0.7 w/v % and above): at least 0.7 w/v %
Olopatadine solubility ([3]; HPCD at or above approximately 2%): 0.5%
Olopatadine solubility ([3]; HPCD at or above approximately 4%): 1%
concentration of cyclodextrin that can solubilize Olopatadine ([3]; 0.5% Olopatadine together with 0.17% guar): approximately 2%
concentration of cyclodextrin that can solubilize Olopatadine ([3]; 0.6% Olopatadine together with 0.17% guar): ~4%
